The values below come from US9364388B2, “Methods of treatment with nitric oxide at pressures greater than one atmosphere” (Barry University, priority 2012, dated 2016).

Data set [1] in a line: Percutaneous absorption of nitric oxide, in vitro Franz human skin finite dose model. Particulars: delivered at a pressure of 1.2 atm as compared with normal pressure; Franz diffusion cell, human skin (FIG. 10). It counts as in vitro ADME. The procedure: The percutaneous absorption of nitric oxide is evaluated using a Franz human skin finite dose model. The in vitro Franz human skin finite dose model has proven to be a valuable tool for the study of percutaneous absorption and the determination of the pharmacokinetics of topically applied drugs. The model uses human ex vivo cadaver or surgical skin mounted in a specially designed diffusion chamber allowing the skin to be maintained at a temperature and humidity that match typical in vivo conditions. A finite dose of a formulation is applied to the outer surface of the skin and drug absorption is measured by monitoring its rate of appearance in the reservoir solution bathing the inner surface of the skin. In this study, the applied dose is a controlled continuous exposure to a gas. Data defining total absorption, rate of absorption, as well as skin content can be accurately determined in this model. […]
A single center, open label study of nitric oxide formulations is performed. […] The rate and extent of penetration of nitric oxide, at normal pressure and at greater than 1 atm of pressure (e.g., 1.2×, 1.5×, 1.8×, 2.0×, 2.2×, etc.) for continuous exposure durations of 30 and 60 minutes is determined for the amount penetrating through the skin and into the different layers of the skin using a Franz Diffusion Cell. […]

For data set [2] the following is noted: mixture of 1000 ppm nitric oxide and 21% oxygen; cited from earlier work.

As to `[N]=O` [NO, nitric oxide], the “NO penetration in the epidermis and stratum corneum” value in data set [1] is reported as “increased”. For the same molecule, the “time for half of the nitric oxide to react to become nitric dioxide” value in data set [2] is reported as “about 3.5 minutes”.
